Laboratory results: PubChem BioAssay (NCI)
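Briefly, cells in 96-well plates were exposed to five compound concentrations for 48 h, and endpoints were estimated by linear interpolation. The concentration for full growth arrest is given as TGI.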

How the values were obtained:
Assay in all cases: growth of human tumour cells (NCI), 48 h
786-0 renal = tested on: 786-0 renal
A549 NSCLC = tested on: A549 NSCLC
ACHN renal = tested on: ACHN renal
CCRF-CEM leukemia = tested on: CCRF-CEM leukemia
COLO 205 colon = tested on: COLO 205 colon
DLD-1 colon = tested on: DLD-1 colon
DMS 114 small cell lung = tested on: DMS 114 small cell lung
DMS 273 small cell lung = tested on: DMS 273 small cell lung
EKVX NSCLC = tested on: EKVX NSCLC
HCC-2998 colon = tested on: HCC-2998 colon
HCT-116 colon = tested on: HCT-116 colon
HCT-15 colon = tested on: HCT-15 colon
HL-60(TB) leukemia = tested on: HL-60(TB) leukemia
HOP-18 NSCLC = tested on: HOP-18 NSCLC
HOP-62 NSCLC = tested on: HOP-62 NSCLC
HOP-92 NSCLC = tested on: HOP-92 NSCLC
HT29 colon = tested on: HT29 colon
IGROV1 ovarian = tested on: IGROV1 ovarian
K-562 leukemia = tested on: K-562 leukemia
KM12 colon = tested on: KM12 colon
KM20L2 colon = tested on: KM20L2 colon
LXFL 529 NSCLC = tested on: LXFL 529 NSCLC
M14 melanoma = tested on: M14 melanoma
M19-MEL melanoma = tested on: M19-MEL melanoma
MALME-3M melanoma = tested on: MALME-3M melanoma
MOLT-4 leukemia = tested on: MOLT-4 leukemia
NCI-H226 lung = tested on: NCI-H226 lung
NCI-H23 lung = tested on: NCI-H23 lung
NCI-H460 lung = tested on: NCI-H460 lung
NCI-H522 lung = tested on: NCI-H522 lung
OVCAR-3 ovarian = tested on: OVCAR-3 ovarian
OVCAR-4 ovarian = tested on: OVCAR-4 ovarian
OVCAR-5 ovarian = tested on: OVCAR-5 ovarian
OVCAR-8 ovarian = tested on: OVCAR-8 ovarian
RPMI-8226 leukemia = tested on: RPMI-8226 leukemia
RXF 393 renal = tested on: RXF 393 renal
RXF-631 renal = tested on: RXF-631 renal
SF-268 CNS = tested on: SF-268 CNS
SF-295 CNS = tested on: SF-295 CNS
SF-539 CNS = tested on: SF-539 CNS
SK-MEL-2 melanoma = tested on: SK-MEL-2 melanoma
SK-MEL-28 melanoma = tested on: SK-MEL-28 melanoma
SK-MEL-5 melanoma = tested on: SK-MEL-5 melanoma
SK-OV-3 ovarian = tested on: SK-OV-3 ovarian
SN12C renal = tested on: SN12C renal
SNB-19 CNS = tested on: SNB-19 CNS
SNB-75 CNS = tested on: SNB-75 CNS
SNB-78 CNS = tested on: SNB-78 CNS
SR leukemia = tested on: SR leukemia
SW-620 colon = tested on: SW-620 colon
U251 CNS = tested on: U251 CNS
UACC-257 melanoma = tested on: UACC-257 melanoma
UACC-62 melanoma = tested on: UACC-62 melanoma
UO-31 renal = tested on: UO-31 renal
A498 renal = tested on: A498 renal
CAKI-1 renal = tested on: CAKI-1 renal
LOX IMVI melanoma = tested on: LOX IMVI melanoma
TK-10 renal = tested on: TK-10 renal
XF 498 CNS = tested on: XF 498 CNS

O=C1c2ccccc2C(=O)N1CCn1nc(-c2ccccc2)cc(-c2ccccc2)c1=O
TGI (786-0 renal): > 100 µM
TGI (A549 NSCLC): > 100 µM
TGI (ACHN renal): > 100 µM
TGI (CCRF-CEM leukemia): > 100 µM
TGI (COLO 205 colon): > 100 µM
TGI (DLD-1 colon): > 100 µM
TGI (DMS 114 small cell lung): > 100 µM
TGI (DMS 273 small cell lung): > 100 µM
TGI (EKVX NSCLC): > 100 µM
TGI (HCC-2998 colon): > 100 µM
TGI (HCT-116 colon): > 100 µM
TGI (HCT-15 colon): > 100 µM
TGI (HL-60(TB) leukemia): 39 µM
TGI (HOP-18 NSCLC): > 100 µM
TGI (HOP-62 NSCLC): > 100 µM
TGI (HOP-92 NSCLC): 96.8 µM
TGI (HT29 colon): > 100 µM
TGI (IGROV1 ovarian): > 100 µM
TGI (K-562 leukemia): > 100 µM
TGI (KM12 colon): > 100 µM
TGI (KM20L2 colon): > 100 µM
TGI (LXFL 529 NSCLC): > 100 µM
TGI (M14 melanoma): > 100 µM
TGI (M19-MEL melanoma): > 100 µM
TGI (MALME-3M melanoma): > 100 µM
TGI (MOLT-4 leukemia): > 100 µM
TGI (NCI-H226 lung): > 100 µM
TGI (NCI-H23 lung): > 100 µM
TGI (NCI-H460 lung): > 100 µM
TGI (NCI-H522 lung): > 100 µM
TGI (OVCAR-3 ovarian): > 100 µM
TGI (OVCAR-4 ovarian): > 100 µM
TGI (OVCAR-5 ovarian): > 100 µM
TGI (OVCAR-8 ovarian): > 100 µM
TGI (RPMI-8226 leukemia): 36.9 µM
TGI (RXF 393 renal): > 100 µM
TGI (RXF-631 renal): > 100 µM
TGI (SF-268 CNS): > 100 µM
TGI (SF-295 CNS): > 100 µM
TGI (SF-539 CNS): > 100 µM
TGI (SK-MEL-2 melanoma): > 100 µM
TGI (SK-MEL-28 melanoma): > 100 µM
TGI (SK-MEL-5 melanoma): > 100 µM
TGI (SK-OV-3 ovarian): > 100 µM
TGI (SN12C renal): > 100 µM
TGI (SNB-19 CNS): > 100 µM
TGI (SNB-75 CNS): > 100 µM
TGI (SNB-78 CNS): > 100 µM
TGI (SR leukemia): 69.8 µM
TGI (SW-620 colon): > 100 µM
TGI (U251 CNS): > 100 µM
TGI (UACC-257 melanoma): > 100 µM
TGI (UACC-62 melanoma): > 100 µM
TGI (UO-31 renal): > 100 µM

COc1ccc(N(CC(=O)O)S(=O)(=O)c2ccccc2)cc1
TGI (786-0 renal): > 100 µM
TGI (A498 renal): > 100 µM
TGI (A549 NSCLC): > 100 µM
TGI (ACHN renal): > 100 µM
TGI (CAKI-1 renal): > 100 µM
TGI (CCRF-CEM leukemia): > 100 µM
TGI (COLO 205 colon): > 100 µM
TGI (DLD-1 colon): > 100 µM
TGI (DMS 273 small cell lung): > 100 µM
TGI (EKVX NSCLC): > 100 µM
TGI (HCT-15 colon): > 100 µM
TGI (HL-60(TB) leukemia): > 100 µM
TGI (HOP-18 NSCLC): > 100 µM
TGI (HOP-92 NSCLC): > 100 µM
TGI (HT29 colon): > 100 µM
TGI (IGROV1 ovarian): > 100 µM
TGI (K-562 leukemia): > 100 µM
TGI (KM12 colon): > 100 µM
TGI (KM20L2 colon): > 100 µM
TGI (LOX IMVI melanoma): > 100 µM
TGI (LXFL 529 NSCLC): > 100 µM
TGI (M14 melanoma): > 100 µM
TGI (M19-MEL melanoma): > 100 µM
TGI (MALME-3M melanoma): > 100 µM
TGI (MOLT-4 leukemia): > 100 µM
TGI (NCI-H226 lung): > 100 µM
TGI (NCI-H23 lung): > 100 µM
TGI (NCI-H460 lung): > 100 µM
TGI (NCI-H522 lung): > 100 µM
TGI (OVCAR-3 ovarian): > 100 µM
TGI (OVCAR-4 ovarian): > 100 µM
TGI (OVCAR-5 ovarian): > 100 µM
TGI (OVCAR-8 ovarian): > 100 µM
TGI (RPMI-8226 leukemia): > 100 µM
TGI (RXF 393 renal): > 100 µM
TGI (RXF-631 renal): > 100 µM
TGI (SF-295 CNS): > 100 µM
TGI (SF-539 CNS): > 100 µM
TGI (SK-MEL-2 melanoma): > 100 µM
TGI (SK-MEL-5 melanoma): > 100 µM
TGI (SK-OV-3 ovarian): > 100 µM
TGI (SN12C renal): > 100 µM
TGI (SNB-19 CNS): > 100 µM
TGI (SW-620 colon): > 100 µM
TGI (TK-10 renal): > 100 µM
TGI (U251 CNS): > 100 µM
TGI (UACC-257 melanoma): > 100 µM
TGI (UACC-62 melanoma): > 100 µM
TGI (UO-31 renal): > 100 µM
TGI (XF 498 CNS): > 100 µM

c1ccc(C(c2ccccc2)c2ccncc2)cc1
TGI (786-0 renal): > 100 µM
TGI (A498 renal): > 100 µM
TGI (A549 NSCLC): > 100 µM
TGI (ACHN renal): > 100 µM
TGI (CAKI-1 renal): > 100 µM
TGI (CCRF-CEM leukemia): > 100 µM
TGI (COLO 205 colon): > 100 µM
TGI (DLD-1 colon): > 100 µM
TGI (DMS 114 small cell lung): > 100 µM
TGI (DMS 273 small cell lung): > 100 µM
TGI (EKVX NSCLC): > 100 µM
TGI (HCC-2998 colon): > 100 µM
TGI (HCT-116 colon): > 100 µM
TGI (HCT-15 colon): > 100 µM
TGI (HOP-18 NSCLC): > 100 µM
TGI (HOP-62 NSCLC): > 100 µM
TGI (HT29 colon): > 100 µM
TGI (IGROV1 ovarian): > 100 µM
TGI (K-562 leukemia): > 100 µM
TGI (KM12 colon): > 100 µM
TGI (KM20L2 colon): > 100 µM
TGI (LOX IMVI melanoma): > 100 µM
TGI (M14 melanoma): > 100 µM
TGI (M19-MEL melanoma): > 100 µM
TGI (MALME-3M melanoma): > 100 µM
TGI (MOLT-4 leukemia): > 100 µM
TGI (NCI-H226 lung): > 100 µM
TGI (NCI-H23 lung): > 100 µM
TGI (NCI-H460 lung): > 100 µM
TGI (OVCAR-3 ovarian): > 100 µM
TGI (OVCAR-4 ovarian): > 100 µM
TGI (OVCAR-5 ovarian): > 100 µM
TGI (OVCAR-8 ovarian): > 100 µM
TGI (RPMI-8226 leukemia): > 100 µM
TGI (RXF-631 renal): > 100 µM
TGI (SF-268 CNS): > 100 µM
TGI (SF-295 CNS): > 100 µM
TGI (SF-539 CNS): > 100 µM
TGI (SK-MEL-2 melanoma): > 100 µM
TGI (SK-MEL-28 melanoma): > 100 µM
TGI (SK-MEL-5 melanoma): > 100 µM
TGI (SK-OV-3 ovarian): > 100 µM
TGI (SN12C renal): > 100 µM
TGI (SNB-19 CNS): > 100 µM
TGI (SNB-75 CNS): 74.3 µM
TGI (SNB-78 CNS): > 100 µM
TGI (SW-620 colon): > 100 µM
TGI (TK-10 renal): > 100 µM
TGI (U251 CNS): > 100 µM
TGI (UACC-257 melanoma): > 100 µM
TGI (UACC-62 melanoma): > 100 µM
TGI (UO-31 renal): > 100 µM
TGI (XF 498 CNS): > 100 µM
